Structures can show the parent of a compound that is named as a salt. Where two headings read alike, the source gives them in different places.
How the values were obtained:
[1] = test system: interferon regulatory factor (IRF) pathway in THP-1 dual cells; assay: THP-1 Dual reporter assay, IRF pathway (luciferase); type: cell-based; details: Homo sapiens, THP1-Dual, read-out: THP1 Dual EC50 (μM) IRF
Outline: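 Compounds (STING agonists) stimulated THP-1 dual cells for 18 h; the cells carry an ISG54 promoter/ISRE-driven luciferase (IRF) and an IFN-β minimal promoter/NF-κB element-driven SEAP. Luciferase in conditioned medium was read by luminescence immediately; SEAP by absorbance at 630 or 655 nm after 1 or 2 h at 37° C.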

[2] = biological target: human STING (Homo sapiens, UniProt Q86WV6); assay: Fluorescence Thermal Shift assay (binding to STING); details: STING 0.1 mg/mL, SyproOrange, 25 to 99° C.
Experimental: Compounds, constructs and conjugates of the present invention were tested for binding to human STING in Fluorescence Thermal Shift assay. STING was preincubated with the compounds for 20 minutes in 50 mM Hepes, 150 mM NaCl, pH 7.5 in 15 or 16 μl volume, following by adding 4 μl of SyproOrange dye dilution (ThermoFisher, cat no. S-6651). Final STING concentration was 0.1 mg/mL. Thermal unfolding was performed in Real-Time PCR QuantStudio 6 Flex System (Applied Biosystems), from 25 to 99° C., with continuous ramp mode and ramp rate 0.033° C./s. The data were analyzed using Protein Thermal Shift Software (ThermoFisher).

[3] = test system: NF-κB pathway in THP-1 dual cells; assay: THP-1 Dual reporter assay, NF-κB pathway (SEAP); type: cell-based; details: Homo sapiens, THP1-Dual, read-out: THP1 Dual EC50 (μM) NFkB
Outline: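 IRF output: ISRE-ISG54 luciferase in collected medium, luminescence measured immediately on reagent addition. NF-κB output: SEAP under NF-κB-element IFN-β promoter, detection medium 1 or 2 h at 37° C, absorbance 630 or 655 nm. Cells were stimulated with STING agonist for 18 h beforehand.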

[4] = 18 h stimulation, absorbance at 630 or 655 nm

Sequence of human STING (Q86WV6 whole entry H232R): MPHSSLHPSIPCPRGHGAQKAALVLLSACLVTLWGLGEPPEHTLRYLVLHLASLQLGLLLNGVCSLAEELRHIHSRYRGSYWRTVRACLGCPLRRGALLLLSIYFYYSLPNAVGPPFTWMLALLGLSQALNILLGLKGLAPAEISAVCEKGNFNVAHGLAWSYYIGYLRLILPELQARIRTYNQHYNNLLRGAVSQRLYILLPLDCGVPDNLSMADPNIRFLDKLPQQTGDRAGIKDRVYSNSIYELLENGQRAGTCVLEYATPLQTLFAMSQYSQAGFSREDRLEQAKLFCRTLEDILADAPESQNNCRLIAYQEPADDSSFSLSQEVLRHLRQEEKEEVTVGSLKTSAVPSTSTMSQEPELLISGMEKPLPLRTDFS

Row | Structure (SMILES) | EC50 ([1]; 18 h stimulation, luminescence) [µM] | hSTING FTS binding assay (ΔT C. °) [2] | EC50 [3, 4] [µM] | EC50 ([1]; 18 h) [µM] | EC50 ([3]; 18 h) [µM]
1 | Cc1ccc(N2CCC[C@H](N(Cc3ccnc(C)c3)Cc3cn(C4CC4)c4cc(N5CC[C@H](CN)C5)c(F)cc4c3=O)C2)cn1 [Example 15, 7-[(3R)-3-(Aminomethyl)pyrrolidin-1-yl]-1-cyclopropyl-6-fluoro-3-({[(3S)-1-(6-methylpyridin-3-yl)piperidin-3-yl][(2-methylpyridin-4-yl)methyl]amino}methyl)-1,4-dihydroquinolin-4-one hydrochloride] | < 1 | +++ (+++=ΔTm ≥20° C.) | < 1 | – | –
2 | Cc1ccc(N2CCC[C@H](N(Cc3ccnc(C)c3)Cc3cn(CCN)c4ccccc4c3=O)C2)cn1 [Example 18, 1-(2-Aminoethyl)-3-({[(3S)-1-(6-methylpyridin-3-yl)piperidin-3-yl][(2-methylpyridin-4-yl)methyl]amino}methyl)-1,4-dihydroquinolin-4-one] | – | + (+=ΔTm ≤10° C.) | – | 1 to 10 | 1 to 10
3 | Cc1ccc(N2CCC[C@H](N(Cc3ccnc(C)c3)Cc3cn(C4CC4)c4cc(N5CC(N)C6(CC6)C5)c(F)cc4c3=O)C2)cn1.Cl (stereo partly drawn) [Example 22, 7-{7-amino-5-azaspiro[2.4]heptan-5-yl}-1-cyclopropyl-6-fluoro-3-({[(3S)-1-(6-methylpyridin-3-yl)piperidin-3-yl][(2-methylpyridin-4-yl)methyl]amino}methyl)-1,4-dihydroquinolin-4-one hydrochloride] | < 1 | +++ (+++=ΔTm ≥20° C.) | < 1 | – | –
4 | Cc1ccc(N2CCC[C@H](N(Cc3ccnc(C)c3)Cc3cn(C)c4cc(N5CC[C@@H](O)C5)ccc4c3=O)C2)cn1 [Example 23, 7-[(3R)-3-hydroxypyrrolidin-1-yl]-1-methyl-3-({[(3S)-1-(6-methylpyridin-3-yl)piperidin-3-yl][(2-methylpyridin-4-yl)methyl]amino}methyl)-1,4-dihydroquinolin-4-one] | < 1 | ++ (++=10<ΔTm <20° C.) | < 1 | – | –
5 | Cc1ccc(N2CCC[C@H](N(Cc3ccnc(C)c3)Cc3cn(C4CC4)c4cc(N5CCC(N)C(F)(F)C5)c(F)cc4c3=O)C2)cn1 (stereo partly drawn) [Example 26, 7-(4-amino-3,3-difluoropiperidin-1-yl)-1-cyclopropyl-6-fluoro-3-({[(3S)-1-(6-methylpyridin-3-yl)piperidin-3-yl][(2-methylpyridin-4-yl)methyl]amino}methyl)-1,4-dihydroquinolin-4-one] | < 1 | +++ (+++=ΔTm ≥20° C.) | < 1 | – | –
6 | Cc1ccc(N2CCC[C@H](N(Cc3ccnc(C)c3)Cc3cn(C4CC4)c4cc(N5CC(CO)C5)c(F)cc4c3=O)C2)cn1 [Example 27, 1-cyclopropyl-6-fluoro-7-[3-(hydroxymethyl)azetidin-1-yl]-3-({[(3S)-1-(6-methylpyridin-3-yl)piperidin-3-yl][(2-methylpyridin-4-yl)methyl]amino}methyl)-1,4-dihydroquinolin-4-one] | < 1 | +++ (+++=ΔTm ≥20° C.) | < 1 | – | –
7 | Cc1ccc(N2CCC[C@H](N(Cc3ccnc(C)c3)Cc3cn(C4CC4)c4cc(N5CCC[C@@H](O)C5)c(F)cc4c3=O)C2)cn1.Cl [Example 28, 1-cyclopropyl-6-fluoro-7-[(3R)-3-hydroxypiperidin-1-yl]-3-({[(3S)-1-(6-methylpyridin-3-yl)piperidin-3-yl][(2-methylpyridin-4-yl)methyl]amino}methyl)-1,4-dihydroquinolin-4-one hydrochloride] | < 1 | +++ (+++=ΔTm ≥20° C.) | < 1 | – | –
8 | Cc1cc(CN(Cc2cn(C)c3cc(Br)ccc3c2=O)[C@H]2CCCN(c3ccc(N)nc3)C2)ccn1.Cl [Example 29, 3-({[(3S)-1-(6-aminopyridin-3-yl)piperidin-3-yl][(2-methylpyridin-4-yl)methyl]amino}methyl)-7-bromo-1-methyl-1,4-dihydroquinolin-4-one hydrochloride] | < 1 | +++ (+++=ΔTm ≥20° C.) | < 1 | – | –

The next lines start with results.

Row | EC50 ([1]; 18 h stimulation, luminescence) [µM] | hSTING FTS binding assay (ΔT C. °) [2] | EC50 [3, 4] [µM] | Structure (SMILES) | EC50 ([1]; 18 h) [µM] | EC50 ([3]; 18 h) [µM]
9 | < 1 | +++ (+++=ΔTm ≥20° C.) | < 1 | CNCCOc1cc2c(cc1F)c(=O)c(CN(Cc1ccnc(C)c1)[C@H]1CCCN(c3ccc(C)nc3)C1)cn2C1CC1.Cl [Example 11, 1-Cyclopropyl-6-fluoro-7-[2-(methylamino)ethoxy]-3-({[(3S)-1-(6-methylpyridin-3-yl)piperidin-3-yl][(2-methylpyridin-4-yl)methyl]amino}methyl)-1,4-dihydroquinolin-4-one hydrochloride] | – | –
10 | < 1 | +++ (+++=ΔTm ≥20° C.) | < 1 | Cc1ccc(N2CCC[C@H](N(Cc3ccnc(C)c3)Cc3cn(C4CC4)c4cc(N5CC[C@@H](N)C5)c(F)cc4c3=O)C2)cn1.Cl [Example 12, 7-[(3R)-3-Aminopyrrolidin-1-yl]-1-cyclopropyl-6-fluoro-3-({[(3S)-1-(6-methylpyridin-3-yl)piperidin-3-yl][(2-methylpyridin-4-yl)methyl]amino}methyl)-1,4-dihydroquinolin-4-one hydrochloride] | – | –
11 | < 1 | +++ (+++=ΔTm ≥20° C.) | < 1 | Cc1ccc(N2CCC[C@H](N(Cc3ccnc(C)c3)Cc3cn(C4CC4)c4cc(N5CC[C@H](N)C5)c(F)cc4c3=O)C2)cn1.Cl [Example 13, 7-[(3S)-3-Aminopyrrolidin-1-yl]-1-cyclopropyl-6-fluoro-3-({[(3S)-1-(6-methylpyridin-3-yl)piperidin-3-yl][(2-methylpyridin-4-yl)methyl]amino}methyl)-1,4-dihydroquinolin-4-one hydrochloride] | – | –
12 | < 1 | +++ (+++=ΔTm ≥20° C.) | < 1 | Cc1ccc(N2CCC[C@H](N(Cc3ccnc(C)c3)Cc3cn(C4CC4)c4cc(N5CC[C@@H](O)C5)c(F)cc4c3=O)C2)cn1.Cl [Example 14, 1-Cyclopropyl-6-fluoro-7-[(3R)-3-hydroxypyrrolidin-1-yl]-3-({[(3S)-1-(6-methylpyridin-3-yl)piperidin-3-yl][(2-methylpyridin-4-yl)methyl]amino}methyl)-1,4-dihydroquinolin-4-one hydrochloride] | – | –
13 | < 1 | +++ (+++=ΔTm ≥20° C.) | < 1 | Cc1ccc(N2CCC[C@H](N(Cc3ccnc(C)c3)Cc3cn(C4CC4)c4cc(N5CCC[C@H](N)C5)c(F)cc4c3=O)C2)cn1 [Example 16, 7-[(3S)-3-Aminopiperidin-1-yl]-1-cyclopropyl-6-fluoro-3-({[(3S)-1-(6-methylpyridin-3-yl)piperidin-3-yl][(2-methylpyridin-4-yl)methyl]amino}methyl)-1,4-dihydroquinolin-4-one] | – | –
14 | < 1 | +++ (+++=ΔTm ≥20° C.) | < 1 | Cc1ccc(N2CCC[C@H](N(Cc3ccnc(C)c3)Cc3cn(C4CC4)c4cc(N5CCC[C@@H](N)C5)c(F)cc4c3=O)C2)cn1 [Example 17, 7-[(3R)-3-Aminopiperidin-1-yl]-1-cyclopropyl-6-fluoro-3-({[(3S)-1-(6-methylpyridin-3-yl)piperidin-3-yl][(2-methylpyridin-4-yl)methyl]amino}methyl)-1,4-dihydroquinolin-4-one] | – | –
15 | < 1 | +++ (+++=ΔTm ≥20° C.) | < 1 | CNC1CCN(c2cc3c(cc2F)c(=O)c(CN(Cc2ccnc(C)c2)[C@H]2CCCN(c4ccc(C)nc4)C2)cn3C2CC2)CC1.Cl [Example 19, 1-cyclopropyl-6-fluoro-7-[4-(methylamino)piperidin-1-yl]-3-({[(3S)-1-(6-methylpyridin-3-yl)piperidin-3-yl][(2-methylpyridin-4-yl)methyl]amino}methyl)-1,4-dihydroquinolin-4-one hydrochloride] | – | –
16 | < 1 | +++ (+++=ΔTm ≥20° C.) | < 1 | Cc1ccc(N2CCC[C@H](N(Cc3ccnc(C)c3)Cc3cn(C4CC4)c4cc(N5CC[C@@H](CN)C5)c(F)cc4c3=O)C2)cn1.Cl [Example 20, 7-[(3S)-3-(aminomethyl)pyrrolidin-1-yl]-1-cyclopropyl-6-fluoro-3-({[(3S)-1-(6-methylpyridin-3-yl)piperidin-3-yl][(2-methylpyridin-4-yl)methyl]amino}methyl)-1,4-dihydroquinolin-4-one hydrochloride] | – | –
17 | < 1 | +++ (+++=ΔTm ≥20° C.) | < 1 | COCCn1cc(CN(Cc2ccnc(C)c2)[C@H]2CCCN(c3ccc(N)nc3)C2)c(=O)c2ccccc21.Cl [Example 21, 3-({[(3S)-1-(6-aminopyridin-3-yl)piperidin-3-yl][(2-methylpyridin-4-yl)methyl]amino}methyl)-1-(2-methoxyethyl)-1,4-dihydroquinolin-4-one hydrochloride] | – | –

Source: US12643879B2, “Functionalized heterocyclic compounds as modulators of stimulator of interferon genes (STING)” (RYVU THERAPEUTICS S.A., priority 2019, dated 2026)
